In US6369093B1, “Pyrazole carboxanilide fungicide” (Bayer Aktiengesellschaft, priority 1998, dated 2002) one finds melting point and Efficacy in % data, which are given here for 8 molecules.

In one data set the test system is Podosphaera leucotricha. Kind of data set: Podosphaera test (apple)/protective. It is filed as in vivo. The note with it: apple plants, protective spray, application rate 100 g/ha, evaluation 10 days after inoculation. The protocol:
(§1) [table] To produce a suitable preparation of active compound, 1 part by weight of active compound is mixed with the stated amounts of solvent and emulsifier, and the concentrate is diluted with water to the desired concentration. To test for protective activity, young plants are sprayed with the preparation of active compound at the stated application rate. After the spray coating has dried on, the plants are inoculated with an aqueous spore suspension of the causative organism of apple mildew Podosphaera leucotricha. The plants are then placed in a greenhouse at about 23° C. and a relative atmospheric humidity of about 70%. Evaluation is carried out 10 days after the inoculation. 0% means an efficacy which corresponds to that of the control, whereas an efficacy of 100% means that no infection is observed.

Data set [1] has as its system Erysiphe graminis f. sp. hordei. Kind of data set: Erysiphe test (barley)/protective. The note with it: barley plants, protective spray, application rate 750 g/ha, evaluation 7 days after inoculation. It is filed as in vivo. The protocol:
Erysiphe test (barley)/protective [table] To produce a suitable preparation of active compound, 1 part by weight of active compound is mixed with the stated amounts of solvent and emulsifier, and the concentrate is diluted with water to the desired concentration. To test for protective activity, young cereal plants are sprayed with the preparation of active compound at the stated application rate. 1 day after the treatment, the plants are inoculated with spores of Erysiphe graminis f. sp. hordei. The plants are then placed in a greenhouse at 70% relative atmospheric humidity and a temperature of 18° C. Evaluation is carried out 7 days after the inoculation. 0% means an efficacy which corresponds to that of the control, whereas an efficacy of 100% means that no infection is observed.

The test system of another data set is Venturia inaequalis. Kind of data set: Venturia test (apple)/protective. It counts as in vivo. Particulars: apple plants, protective spray, application rate 100 g/ha, evaluation 12 days after inoculation. As to the method:
To produce a suitable preparation of active compound, 1 part by weight of active compound is mixed with the stated amounts of solvent and emulsifier, and the concentrate is diluted with water to the desired concentration.
To test for protective activity, young plants are sprayed with the preparation of active compound at the stated application rate. After the spray coating has dried on, the plants are inoculated with an aqueous conidia suspension of the causative organism of apple scab Venturia inaequalis and then remain in an incubation cabin at 20° C. and 100% relative atmospheric humidity for 1 day.
The plants are then placed in a greenhouse at about 21° C. and a relative atmospheric humidity of about 90%.
Evaluation is carried out 12 days after the inoculation. 0% means an efficacy which corresponds to that of the control, whereas an efficacy of 100% means that no infection is observed.

A further data set deals with Pyrenophora teres. Kind of data set: Pyrenophora teres test (barley)/protective. It counts as in vivo. The note with it: barley plants, protective spray, application rate 250 g/ha, evaluation 7 days after inoculation. The protocol: [table] To produce a suitable preparation of active compound, 1 part by weight of active compound is mixed with the stated amounts of solvent and emulsifier, and the concentrate is diluted with water to the desired concentration. To test for protective activity, young plants are sprayed with the preparation of active compound at the stated application rate. After the spray coating has dried on, the plants are sprayed with a conidia suspension of Pyrenophora teres. The plants remain in an incubation cabin at 20° C. and 100% relative atmospheric humidity for 48 hours. The plants are then placed in a greenhouse at a temperature of about 20° C. and a relative atmospheric humidity of about 80%. Evaluation is carried out 7 days after the inoculation. 0% means an efficacy which corresponds to that of the control, whereas an efficacy of 100% means that no infection is observed.

Another data set has as its system Sphaerotheca fuliginea. Description: Sphaerotheca test (cucumber)/protective. It is filed as in vivo. Particulars: cucumber plants, protective spray, application rate 100 g/ha, evaluation 10 days after inoculation. The protocol: as §1, with “Afier” for “After”, “Sphaerotheca fuliginea.” for “the causative organism of apple mildew Podosphaera leucotricha.”, “placed” for “placed in a greenhouse”, “70% in a greenhouse.” for “70%.”

Consider `Cc1nn(C)c(F)c1C(=O)Nc1ccccc1-c1ccccc1C(F)(F)F` [Example 4], for which the melting point was 103 °C. The molecule further came in with an Efficacy in % in the data set with Podosphaera leucotricha of 97%.
Molecule `Cc1nn(C)c(F)c1C(=O)Nc1ccccc1-c1ccccc1F` [Example 5] gave a melting point of 113 °C. Besides, the Efficacy in % in the data set with Podosphaera leucotricha is recorded as 99%.
For the molecule `Cc1cccc(NC(=O)c2c(C)nn(C)c2F)c1-c1ccccc1` [Example 16], the melting point came to 144 °C. This molecule also gave an Efficacy in % in data set [1] of 94%.
For `Cc1ccc(-c2ccccc2NC(=O)c2c(C)nn(C)c2F)cc1Cl` [Example 8], the Efficacy in % with Venturia inaequalis came to 100%; in the data set on Pyrenophora teres it was 100%; with Podosphaera leucotricha, 98%.
`Cc1ccccc1-c1ccccc1NC(=O)c1c(C)nn(C)c1F` [Example 2]: the melting point worked out at 100 °C. This molecule also gave an Efficacy in % in data set [1] of 90%. In the data set on Podosphaera leucotricha, this molecule gave an Efficacy in % of 96%.
As to `Cc1nn(C)c(F)c1C(=O)Nc1ccccc1-c1ccc(Br)cc1` [Example 1, N-[2-(4-bromophcnyl)]-1,3-dimethyl-5-fluoro-pyrazole-4-carboxanilide], the melting point amounted to 127 °C. The molecule further showed an Efficacy in % with Venturia inaequalis of 100%. Besides, the Efficacy in % with Sphaerotheca fuliginea is listed as 95%. The molecule further had an Efficacy in % in data set [1] of 100%. Also, the Efficacy in % with Pyrenophora teres is 100%. Further, the Efficacy in % in the data set with Podosphaera leucotricha is 100%.
`Cc1nn(C)c(F)c1C(=O)Nc1ccccc1-c1cccc(C(F)(F)F)c1` [Example 9] showed a melting point of 116 °C. The molecule further gave an Efficacy in % in the data set on Venturia inaequalis of 97%. Moreover, in the data set with Sphaerotheca fuliginea, the Efficacy in % is 94%. In addition, the Efficacy in % in the data set on Pyrenophora teres is listed as 100%. The Efficacy in % with Podosphaera leucotricha is 100%.
In turn, `Cc1cccc(NC(=O)c2c(C)nn(C)c2F)c1-c1ccc(Cl)cc1` [Example 17] came in with a melting point of 177 °C. The Efficacy in % in data set [1] is 100%. In the data set with Pyrenophora teres, this molecule gave an Efficacy in % of 100%.
